Data taken from US7956083B2, “Compounds” (Glaxo Group Limited, priority 2008, dated 2011).

The compounds below were run against human ER beta (Homo sapiens, UniProt Q92731) (assay: ER beta FP binding assay (fluorescence polarisation, Fluormone EL Red ligand)). Details: 6 nM ERbeta protein, 1.5 nM ER FP ligand, 3 hours at room temperature; read-out: pIC50 in the ER beta FP binding assay (converted).
Experimental: Assay Buffer (AB) (50 mM MOPES pH 7.5, 50 mM NaF, 2.5 mM CHAPs), in deionized water, 5 mM 1,4 dithiothreitol (DTT) added on day of the experiment. The appropriate amount of AB was placed in a plastic tube, adding solid DTT before the assay was run. AB with DTT was distributed to plastic tubes. We have found use of plastic to be important vs glass. A final concentration of 6 nM ERbeta protein was added to the tube followed by gentle inversion. A final concentration of 1.5 nM ER FP ligand (Fluormone™ EL Red 200 nM in 20 mM Tris, 90% Methanol purchased from Invitrogen catalogue no P3030) was added to the same tube followed by gentle inversion. This was allowed to sit for 5-10 minutes before adding it to the 384 assay plate. Similar protocol was used for ERalpha with a final concentration of 4 nM ERalpha and 1.5 nM ER FP ligand.
384 plates containing test compounds dissolved in 100% DMSO at 1 mM were serially diluted (1:3) by a Beckman FX. Serial diluted test compounds were added, 0.1 μL, to the assay plates with a maximum final concentration of 10 uM. Once the assay plates were ready, 10 μL of the above reagents were added to the appropriate set of plates with the Thermo combi. These plates were then sealed and place at room temperature for 3 hours.
The plates were then placed on the Molecular Devices Analyst and counted (excitation 535 nm, emission 590 nm with a 561 Dichroic mirror). Data was normalized to control then fitted to a non-linear least squares algorithm (see below).
pIC50 Calculation y=a+((b−a)/(1+(10^x/10^c){circumflex over (0)}d)
The amino acid sequence of human ER beta used in this assay is […]

Chain of human ER beta (Q92731 with tags, fused parts or gaps): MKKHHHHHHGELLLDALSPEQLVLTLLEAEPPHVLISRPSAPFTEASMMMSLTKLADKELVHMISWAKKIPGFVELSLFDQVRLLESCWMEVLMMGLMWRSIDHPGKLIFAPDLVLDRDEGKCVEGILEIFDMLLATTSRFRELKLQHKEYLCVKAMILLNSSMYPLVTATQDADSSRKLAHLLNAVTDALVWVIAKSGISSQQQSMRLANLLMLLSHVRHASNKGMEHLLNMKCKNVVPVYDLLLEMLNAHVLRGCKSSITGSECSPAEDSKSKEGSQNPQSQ

SMILES | IC50 [nM]
Oc1ccc(-n2ccc3c(O)c(F)ccc32)cc1F [Example 5, 5-fluoro-1-(3-fluoro-4-hydroxyphenyl)-1H-indol-4-ol] | < 10
Oc1ccc(-n2ccc3c(O)ccc(Cl)c32)cc1F [Example 7, 7-Chloro-1-(3-fluoro-4-hydroxyphenyl)-1H-indol-4-ol] | < 10
Oc1ccc(-n2ccc3c(O)cc(F)cc32)cc1 [Example 10, 6-fluoro-1-(4-hydroxyphenyl)-1H-indol-4-ol] | < 10
Oc1ccc(-n2ccc3c(O)c(F)cc(Br)c32)cc1F [Example 4, 7-bromo-5-fluoro-1-(3-fluoro-4-hydroxyphenyl)-1H-indol-4-ol] | < 10

The next lines start with the values.

IC50 [nM] | SMILES
< 10 | N#Cc1cc(O)c2ccn(-c3ccc(O)c(F)c3)c2c1 [Example 8, 1-(3-Fluoro-4-hydroxyphenyl)-4-hydroxy-1H-indole-6-carbonitrile]
< 10 | Oc1ccc(-n2ccc3c(O)cc(F)cc32)cc1F [Example 9, 6-Fluoro-1-(3-fluoro-4-hydroxyphenyl)-1H-indol-4-ol]
